Experimental data from patent US10449208B2, “Antiviral prodrugs of tenofovir” (Merck Sharp & Dohme Corp., priority 2016, dated 2019).
Read-outs that look alike come from different tables or passages of the source.

Test system: HIV-1 (H9/IIIB strain)
Assay: Multiple round HIV-1 infection assay (Viking assay) in MT4-GFP cells
Format: cell-based
Details: MT4-GFP cells infected with HIV-1 H9/IIIB, inhibition of reproductive ratio R0
Protocol: Assessing Antiviral Potency in a Multiple Round HIV-1 Infection Assay (Viking Assay)
The antiviral activity of the tenofovir prodrugs of the Examples herein was assessed in an assay that measures the rate of replication of HIV in cell culture, termed the Viking assay (Viral KINetics in Green cells) and performed as follows. HIV-1 replication was monitored using MT4-gag-GFP clone D3 (hereafter designated MT4-GFP), which are MT-4 cells modified to harbor a GFP reporter gene, the expression of which is dependent on the HIV-1 expressed proteins tat and rev. Productive infection of an MT4-GFP cell with HIV-1 results in GFP expression approximately 24 h post-infection. MT4-GFP cells were maintained at 37° C./5% CO2/90% relative humidity in RPMI 1640 supplemented with 10% fetal bovine serum, 100 μ/ml penicillin/streptomycin, and 400 μg/ml G418 to maintain the reporter gene. For infections, MT4-GFP cells were placed in the same medium lacking G418 and infected overnight with HIV-1 (H9/IIIB strain) virus at an approximate multiplicity of infection of 0.01 in the same incubation conditions. Cells were then washed and re-suspended in either RPMI 1640 supplemented with 10% or 50% normal human serum (NFIS) at 1.6×10^5 cells/mL (10% NHS or 50% NHS, respectively). Compound plates were prepared by dispensing compounds dissolved in DMSO into wells of 384 well poly-D -lysine-coated plates (0.2 μl/well) using an ECHO acoustic dispenser. Each compound was tested in a 10-point serial 3-fold dilution (typical final concentrations: 8.4 μM-0.42 nM). Controls included no inhibitor (DMSO only) and a combination of three antiviral agents (efavirenz, indinavir, an in-house integrase strand transfer inhibitor at final concentrations of 4 μM each). Cells were added (50 μL/well) to compound plates and the infected cells were maintained at 37° C./5% CO2/90% relative humidity.
infected cells were quantified at two time points, ˜48 h and ˜72 h post -infection, by counting the number of green cells in each well using an Acumen eX3 scanner. The increase in the number of green cells over ˜24 h period gives the reproductive ratio, R0, which is typically 5-15 and has been shown experimentally to be in logarithmic phase (data not shown). Inhibition of R0 is calculated for each well, and IC50s determined by non-linear 4-parameter curve fitting.

[1] = Human immunodeficiency virus 1, IIIB, 10% normal human serum, read-out: Viking, IC50 (10% NHS)
[2] = Human immunodeficiency virus 1, IIIB, 50% normal human serum, read-out: Viking, IC50 (50% NHS)
[3] = 10% normal human serum, read-out: Viking, IC50 (10% NHS)
[4] = 50% normal human serum, read-out: Viking, IC50 (50% NHS)

Compound	IC50 [1]	IC50 [2]	IC50 [3]	IC50 [4]
C[C@H](Cn1cnc2c(N)ncnc21)OCP(=O)(NC(C)(C)C(=O)OC1CCCC1)O[C@@H](C)C(=O)OC1CCCC1 (single isomer, unassigned) [Example 5A]	5.71 nM	45 nM		
C[C@H](Cn1cnc2c(N)ncnc21)OCP(=O)(NC(C)(C)C(=O)OC1CCCC1)O[C@@H](C)C(=O)OC1CCCC1 (single isomer, unassigned) [Example 5B]			5.73 nM	23.4 nM
CCCCCCOC(=O)C(C)(C)NP(=O)(CO[C@H](C)Cn1cnc2c(N)ncnc21)O[C@H](C)C(=O)OC(C)C (single isomer, unassigned) [Example 9A]			4.2 nM	26.1 nM
CCCCCOC(=O)[C@H](C)OP(=O)(CO[C@H](C)Cn1cnc2c(N)ncnc21)NC(C)(C)C(=O)OC(C)C (single isomer, unassigned) [Example 10A]			26.3 nM	142 nM
CCCCCOC(=O)[C@H](C)OP(=O)(CO[C@H](C)Cn1cnc2c(N)ncnc21)NC(C)(C)C(=O)OC(C)C (single isomer, unassigned) [Example 10B]			85.6 nM	357 nM
CCCCOC(=O)C(C)(C)NP(=O)(CO[C@H](C)Cn1cnc2c(N)ncnc21)O[C@@H](C)C(=O)OC1CCCC1 (single isomer, unassigned) [Example 11A]			24.8 nM	66.2 nM
CCCCOC(=O)C(C)(C)NP(=O)(CO[C@H](C)Cn1cnc2c(N)ncnc21)O[C@@H](C)C(=O)OC1CCCC1 (single isomer, unassigned) [Example 11B]			3.98 nM	22.8 nM
CC(C)OC(=O)[C@H](C)OP(=O)(CO[C@H](C)Cn1cnc2c(N)ncnc21)NC(C)(C)C(=O)OC1CCCCC1 (single isomer, unassigned) [Example 12B]			6.07 nM	13.5 nM
CC(C)OC(=O)COP(=O)(CO[C@H](C)Cn1cnc2c(N)ncnc21)NC(C)(C)C(=O)OC1CCCC1 (single isomer, unassigned) [Example 14A]	10 nM	23.5 nM		
CC(C)OC(=O)COP(=O)(CO[C@H](C)Cn1cnc2c(N)ncnc21)NC(C)(C)C(=O)OC1CCCC1 (single isomer, unassigned) [Example 14B]			5.4 nM	36.2 nM
CC(C)OC(=O)COP(=O)(CO[C@H](C)Cn1cnc2c(N)ncnc21)NC(C)(C)C(=O)OC1CCCCC1 (single isomer, unassigned) [Example 15A]	9.98 nM	28.5 nM		
CC(C)OC(=O)COP(=O)(CO[C@H](C)Cn1cnc2c(N)ncnc21)NC(C)(C)C(=O)OC1CCCCC1 (single isomer, unassigned) [Example 15B]			10.3 nM	44.2 nM
CC(C)OC(=O)[C@H](C)OP(=O)(CO[C@H](C)Cn1cnc2c(N)ncnc21)NC(C)(C)C(=O)OC1CCC1 (single isomer, unassigned) [Example 16A]	2.61 nM			7.5 nM
CC(C)OC(=O)[C@H](C)OP(=O)(CO[C@H](C)Cn1cnc2c(N)ncnc21)NC(C)(C)C(=O)OC1CCC1 (single isomer, unassigned) [Example 16B]			4.75 nM	17.1 nM
CC(C)OC(=O)COP(=O)(CO[C@H](C)Cn1cnc2c(N)ncnc21)NC(C)(C)C(=O)OC1CCC1 (single isomer, unassigned) [Example 17A]	6.39 nM	12.7 nM		
CCCCCOC(=O)C(C)(C)NP(=O)(CO[C@H](C)Cn1cnc2c(N)ncnc21)O[C@@H](C)C(=O)OC1CCCC1 (single isomer, unassigned) [Example 19A]			14 nM	49.7 nM
CCOC(=O)C(C)(C)NP(=O)(CO[C@H](C)Cn1cnc2c(N)ncnc21)OCC(=O)OC(C)C (stereo partly drawn) [Example 27, Ethyl 2-((((((R)-1-(6-amino-9H-purin-9-yl)propan-2-yl)oxy)methyl)(2-isopropoxy-2-oxoethoxy)phosphoryl)amino)-2-methylpropanoate]	10.1 nM	13.3 nM		
CCOC(=O)C(C)(C)NP(=O)(CO[C@H](C)Cn1cnc2c(N)ncnc21)O[C@@H](C)C(=O)OC(C)C (stereo partly drawn) [Example 28, Ethyl 2-((((((R)-1-(6-amino-9H-purin-9-yl)propan-2-yl)oxy)methyl)(((S)-1-isopropoxy-1-oxopropan-2-yl)oxy)phosphoryl)amino)-2-methylpropanoate]	6.38 nM	19.7 nM		
CCOC(=O)C(C)(C)NP(=O)(CO[C@H](C)Cn1cnc2c(N)ncnc21)O[C@H](C)C(=O)OC(C)C (stereo partly drawn) [Example 29, Ethyl 2-((((((R)-1-(6-amino-9H-purin-9-yl)propan-2-yl)oxy)methyl)(((R)-1-isopropoxy-1-oxopropan-2-yl)oxy)phosphoryl)amino)-2-methylpropanoate]	9.22 nM	17.2 nM		
CC(C)COC(=O)C(C)(C)NP(=O)(CO[C@H](C)Cn1cnc2c(N)ncnc21)OCC(=O)OC(C)C (stereo partly drawn) [Example 30, Isobutyl 2-((((((R)-1-(6-amino-9H-purin-9-yl)propan-2-yl)oxy)methyl)(2-isopropoxy-2-oxoethoxy)phosphoryl)amino)-2-methylpropanoate]	4.38 nM	12 nM		
CC(C)OC(=O)[C@H](Cc1ccccc1)OP(=O)(CO[C@H](C)Cn1cnc2c(N)ncnc21)NC(C)(C)C(=O)OC(C)C (stereo partly drawn) [Example 32, Isopropyl 2-((((((R)-1-(6-amino-9H-purin-9-yl)propan-2-yl)oxy)methyl)(((S)-1-isopropoxy-1-oxo-3-phenylpropan-2-yl)oxy)phosphoryl)amino)-2-methylpropanoate]	3.34 nM	23.2 nM		
CCCCCCOC(=O)C(C)(C)NP(=O)(CO[C@H](C)Cn1cnc2c(N)ncnc21)O[C@@H](C)C(=O)OC1CCCC1 (stereo partly drawn) [Example 34, Hexyl 2-((((((R)-1-(6-amino-9H-purin-9-yl)propan-2-yl)oxy)methyl)(((S)-1-(cyclopentyloxy)-1-oxopropan-2-yl)oxy)phosphoryl)amino)-2-methylpropanoate]	3.57 nM	12.9 nM		
CCCCCCOC(=O)C(C)(C)NP(=O)(CO[C@H](C)Cn1cnc2c(N)ncnc21)OCC(=O)OC1CCCC1 (some centres unmarked) [Example 35]	3.83 nM	14 nM		
CC(C)COC(=O)C(C)(C)NP(=O)(CO[C@H](C)Cn1cnc2c(N)ncnc21)O[C@@H](C)C(=O)OC1CCCC1 (stereo partly drawn) [Example 37, Isobutyl 2-((((((R)-1-(6-amino-9H-purin-9-yl)propan-2-yl)oxy)methyl)(((S)-1-(cyclopentyloxy)-1-oxopropan-2-yl)oxy)phosphoryl)amino)-2-methylpropanoate]	10.3 nM	63.1 nM		
CC(C)OC(=O)[C@H](C)OP(=O)(CO[C@H](C)Cn1cnc2c(N)ncnc21)NC(C)(C)C(=O)OC1CCCC1 (stereo partly drawn) [Example 39, Cyclopentyl 2-((((((R)-1-(6-amino-9H-purin-9-yl)propan-2-yl)oxy)methyl)(((S)-1-isopropoxy-1-oxopropan-2-yl)oxy)phosphoryl)amino)-2-methylpropanoate]	3.43 nM	12.6 nM		
CCOC(=O)[C@H](C)OP(=O)(CO[C@H](C)Cn1cnc2c(N)ncnc21)NC(C)(C)C(=O)OC(C)C (stereo partly drawn) [Example 40, Isopropyl 2-((((((R)-1-(6-amino-9H-purin-9-yl)propan-2-yl)oxy)methyl)(((S)-1-ethoxy-1-oxopropan-2-yl)oxy)phosphoryl)amino)-2-methylpropanoate]	19.2 nM	58.7 nM		
CCCCCCOC(=O)C(C)(C)NP(=O)(CO[C@H](C)Cn1cnc2c(N)ncnc21)O[C@@H](C)C(=O)OCC (stereo partly drawn) [Example 43, Hexyl 2-((((((R)-1-(6-amino-9H-purin-9-yl)propan-2-yl)oxy)methyl)(((S)-1-ethoxy-1-oxopropan-2-yl)oxy)phosphoryl)amino)-2-methylpropanoate]	6.15 nM	20.4 nM		
CCCCCCOC(=O)C(C)(C)NP(=O)(CO[C@H](C)Cn1cnc2c(N)ncnc21)OC(C)(C)C(=O)OC(C)C (stereo partly drawn) [Example 44, Hexyl 2-((((((R)-1-(6-amino-9H-purin-9-yl)propan-2-yl)oxy)methyl)((1-isopropoxy-2-methyl-1-oxopropan-2-yl)oxy)phosphoryl)amino)-2-methylpropanoate]	1.42 nM	1.81 nM		
